Experimental findings from ChEMBL document CHEMBL1152756, “Photodynamic effects of novel 5,15-diaryl-tetrapyrrole derivatives on human colon carcinoma cells” (Bioorg Med Chem, 2009) are described below.

For experiment [1], the system named is HCT-116. Description: Induction of ROS generation in human HCT116 cells at IC50 after 24 hrs irradiated with tungsten-halogen white light for 2 hrs followed by incubation in drug free medium for 24 hrs by flow cytometry. The format is functional, cell-based. (In general: A flow cytometer gives signals particle by particle.)
For experiment [2], the system named is HCT-116. The experiment in a line: Phototoxicity against human HCT116 cells […] after 24 hrs irradiated with tungsten-halogen white light for 2 hrs followed by incubation in drug free medium for 24 hrs by MTT assay in presence of nitric oxide synthase inhibitor L-NMMA. It is filed as functional, cell-based. Particulars: HCT-116, light or radiation study. For orientation: Formazan colour is commonly taken as a measure of viable cells.

For experiment [3], the system named is HCT-116. The experiment in a line: Cell cycle arrest in human HCT116 cells assessed as accumulation at G2/M phase at IC50 after 24 hrs irradiated with tungsten-halogen white light for 2 hrs followed by incubation in drug free medium for 24 hrs by flow cytometry. The format is functional.
The subject of experiment [4] is HCT-116. Description: Induction of apoptosis in human HCT116 cells assessed as decrease in Bcl2 protein expression at IC50 after 24 hrs irradiated with tungsten-halogen white light for 2 hrs followed by incubation in drug free medium for 24 hrs […]. It is filed as functional, cell-based.
In experiment [5] the test system is HCT-116. The experiment in a line: Induction of apoptosis in human HCT116 cells assessed as increase in Bax protein expression at IC50 after 24 hrs irradiated with tungsten-halogen white light for 2 hrs followed by incubation in drug free medium for 24 hrs […]. It is filed as functional, cell-based.
Experiment [6] has as its system HCT-116. The experiment in a line: Phototoxicity against human HCT116 cells […] after 24 hrs irradiated with LED red light for 2 hrs followed by incubation in drug free medium for 24 hrs by MTT assay. It is filed as functional, cell-based. Particulars: HCT-116, light or radiation study.
Experiment [7] has as its system HCT-116. Description: Cell cycle arrest in human HCT116 cells assessed as accumulation at G1 phase at IC50 after 24 hrs irradiated with tungsten-halogen white light for 2 hrs followed by incubation in drug free medium for 24 hrs by flow cytometry. The format is functional.
Experiment [8] relates to HCT-116. Description: Induction of apoptosis in human HCT116 cells at IC50 after 24 hrs irradiated with tungsten-halogen white light for 2 hrs followed by incubation in drug free medium for 24 hrs using annexin V-FITC staining by FACS. It is filed as functional, cell-based.
In experiment [9] the test system is HCT-116. Description: Induction of NO radical generation in human HCT116 cells at IC50 after 24 hrs irradiated with tungsten-halogen white light for 2 hrs followed by incubation in drug free medium for 24 hrs. It is filed as functional, cell-based.
Experiment [10] concerns HCT-116. Description: Induction of apoptosis in human HCT116 cells assessed as decrease in survivin protein expression at IC50 after 24 hrs irradiated with tungsten-halogen white light for 2 hrs followed by incubation in drug free medium for 24 hrs […]. The format is functional, cell-based.
Experiment [11] relates to HCT-116. Description: Phototoxicity against human HCT116 cells […] after 24 hrs irradiated with tungsten-halogen white light for 2 hrs followed by incubation in drug free medium for 24 hrs by MTT assay. It is filed as functional, cell-based. Particulars: HCT-116, light or radiation study.
Experiment [12] concerns HCT-116. Description: Cell cycle arrest in human HCT116 cells assessed as accumulation at S phase at IC50 after 24 hrs irradiated with tungsten-halogen white light for 2 hrs followed by incubation in drug free medium for 24 hrs by flow cytometry. The format is functional.

Converted amounts (≈) assume the structure as drawn. The source made the active and inactive calls. No cut-off for these calls is given here.

One may read the IC50 as the concentration at which inhibition is half-maximal. For the compound `Oc1cccc(-c2c3nc(cc4ccc([nH]4)c(-c4ccccc4)c4nc(cc5ccc2[nH]5)C=C4)C=C3)c1`, the outcome with HCT-116 [1], with HCT-116 [4], in the experiment with HCT-116 [5], in the experiment with HCT-116 [8], in the experiment on HCT-116 [9] and in the experiment with HCT-116 [10] was Active. Further, the IC50 with HCT-116 [2] was found to be 0.482 ng/mL; with HCT-116 [6] it was 3.96 nM; in the experiment on HCT-116 [11] it was 0.683 ng/mL (≈ 1.43 nM). Moreover, the Activity came out at 29.69% in the experiment on HCT-116 [3], 49.03% in the experiment on HCT-116 [7] and 21.28% in the experiment with HCT-116 [12].

Turning to `COc1cccc(-c2c3nc(cc4ccc([nH]4)c(-c4ccccc4)c4nc(cc5ccc2[nH]5)C=C4)C=C3)c1`, the Activity with HCT-116 [3] was found to be 29.6%; in the experiment on HCT-116 [7], 52.4%; in the experiment on HCT-116 [12], 17.93%. The result in the experiment with HCT-116 [4], with HCT-116 [5], in the experiment with HCT-116 [8] and in the experiment on HCT-116 [10] was Active.

For the compound `Oc1cccc(-c2c3nc(cc4ccc([nH]4)c(-c4ccccc4)c4nc(cc5ccc2[nH]5)C=C4)CC3)c1`, the IC50 in the experiment on HCT-116 [6] came to 1.32 nM.

Consider `Oc1cccc(-c2c3nc(c(-c4cccc(O)c4)c4ccc([nH]4)c(-c4cccc(O)c4)c4nc(c(-c5cccc(O)c5)c5ccc2[nH]5)CC4)C=C3)c1` [TEMOPORFIN], for which the Activity in the experiment on HCT-116 [3] turned out to be 27.17%; in the experiment on HCT-116 [7], 51.53%; in the experiment on HCT-116 [12] it was 21.29%. For the same compound, the outcome with HCT-116 [4], in the experiment on HCT-116 [5], in the experiment with HCT-116 [8] and with HCT-116 [10] was Active. Also, the IC50 in the experiment with HCT-116 [6] worked out at 41 nM.

Consider `C1=Cc2nc1cc1ccc([nH]1)c(-c1ccccc1)c1nc(cc3ccc([nH]3)c2-c2ccccc2)C=C1`, for which the Activity in the experiment with HCT-116 [3] is reported as 29.27%; in the experiment with HCT-116 [7] it was 52.83%; in the experiment with HCT-116 [12], 17.89%. The result in the experiment with HCT-116 [4], in the experiment with HCT-116 [5], in the experiment on HCT-116 [8] and with HCT-116 [10] was Active.
